US5079260A, “Method for treating inflammation and compounds and compositions suitable for use therein” (Nova Pharmaceutical Corporation, priority 1990, dated 1992)

Columns and labels:
[1] = test system: Ear Edema Caused by Arachidonic Acid; assay: Inhibition of Ear Edema Caused by Arachidonic Acid (I), Table 2; assay type: in vivo, CF-1 Mice; conditions: dose not given in Example 4, sixty minutes
[2] = test system: Ear Edema Caused by Oxazolone; assay: Inhibition of Ear Edema Caused by Oxazolone (I), Table 5; assay type: in vivo, CF-1 Mice; conditions: i.p., 100 mg/kg, 30 min before irritant; sensitized mice; 24 h
Excerpt: (§1) Such inflammatory agents typically include tetradecanoylphorbolacetate, arachidonic acid, xylene, capsaicin, oxazolone, carrageenan and the like. The reverse passive Arthus test offers another measure of the compound's utility in preventing an inflammatory response (Chang et al, Eur. J. Pharm. 69:155-164 (1981)). Test compounds are typically administered intraperitoneally or topically. For intraperitoneal administration, the test compound can be given in dimethyl sulfoxide or in 0.5% methylcellulose 30 minutes prior to administration of the irritant. For topical administration, the test compound can be dissolved in, for example, acetone, ethanol or dimethyl sulfoxide and applied about 15 minutes prior to application of the irritant. Results can be expressed as the percent decrease in swelling in the compound-treated animals as compared to control animals that receive only the irritant.
Inhibition of Ear Edema Caused by Oxazolone (I)
CF-1 Mice, 25-30 g body weight, six animals per group, were used. The mice were sensitized to the irritant two weeks prior to the test by dribbling 100 μl of a 3% solution of oxazolone in acetone onto the abdominal skin of the animal. Test compounds (compounds of Formula I where X is oxygen, R3, R4, A and B are hydrogen and Q is as indicated in Table 5) were administered intraperitoneally as follows. The test compound was dissolved in DMSO or 0.5% methylcellulose and 100 μl (100 mg/kg) was injected 30 minutes prior to irritant. The irritant, 3% oxazolone in acetone, was added to the surface of the ear, 5 μl added to the upper surface and 5 μl to the lower surface. After twenty four hours, the thickness of the ear was measured to 0.01 mm by a micrometer with loose drag positioned at the lateral-most edge of the mid-point of the pinna. Data were calculated as the inhibition by the test compound of increased ear thickness compared to control animals receiving only the irritant.

[3] = test system: Ear Edema Caused by Tetradecanoylphorbolacetate; assay: Inhibition of Ear Edema Caused by Tetradecanoylphorbolacetate (I), Table 1; assay type: in vivo, CF-1 Mice
Excerpt: as §1
Inhibition of Ear Edema Caused by Tetradecanoylphorbolacetate (I)
CF-1 Mice, 25-30 g body weight, six animals per group, were used. Test compounds (compounds of Formula I where X is oxygen, R3, R4, A and B are hydrogen and Q is as indicated in Table 1) were administered intraperitoneally (100 mg/kg) or topically as follows. For intraperitoneal administration, the test compound was dissolved in dimethyl sulfoxide or 0.5% methylcellulose and 100 μl was injected 30 minutes prior to irritant (100 mg/kg, i.p.). For topical administration, the test compound was dissolved in either acetone, ethanol or dimethyl sulfoxide and 5 μl (100 μg) applied to the upper surface (1 cm^2) of the ear and an additional 5 μl (100 μg) applied to the lower surface (1 cm^2) of the ear fifteen minutes prior to application of the irritant. A solution of the irritant, tetradecanoylphorbolacetate, 200 μg/ml, was added to the surface of the ear, 5 μl added to the upper surface and 5 μl to the lower surface. After three hours, the thickness of the ear was measured to 0.01 mm by a micrometer with loose drag positioned at the lateral-most edge of the mid-point of the pinna. Data were calculated as the inhibition by the test compound of increased ear thickness compared to control animals receiving only the irritant.

[4] = test system: Ear Edema Caused by Xylene; assay: Inhibition of Ear Edema Caused by Xylene (I), Table 3; assay type: in vivo, CF-1 Mice; conditions: 2 h
Excerpt: as §1
Inhibition of Ear Edema Caused by Xylene (I)
CF-1 Mice, 25-30 g body weight, six animals per group, were used. Test compounds (compounds of Formula I where X is oxygen, R3, R4, A and B are hydrogen and Q is as indicated in Table 3) were administered intraperitoneally (100 mg/kg) or topically as follows. For intraperitoneal administration, the test compound was dissolved in DMSO or 0.5% methylcellulose and 100 μl was injected 30 minutes prior to irritant. For topical administration, test compound was dissolved in either acetone, ethanol or dimethyl sulfoxide and 5 μl (10 μg) applied to the upper surface (1 cm^2) of the ear and an additional 5 μl (10 μg) applied to the lower surface (1 cm^2) of the ear fifteen minutes prior to application of the irritant. The irritant, xylene, was added to the surface of the ear, 20 μl added to the upper surface and 20 μl to the lower surface. After two hours, the thickness of the ear was measured to 0.01 mm by a micrometer with loose drag positioned at the lateral-most edge of the mid-point of the pinna. Data were calculated as the inhibition by the test compound of increased ear thickness compared to that of control animals receiving only the irritant.

[5] = test system: Ear Edema Caused by Capsaicin; assay: Inhibition of Ear Edema Caused by Capsaicin, Table 4; assay type: in vivo, CF-1 Mice
Excerpt: as §1
Inhibition of Ear Edema Caused by Capsaicin
CF-1 Mice, 25-30 g body weight, six animals per group, were used. […] After thirty minutes, the thickness of the ear was measured to 0.01 mm by a micrometer with loose drag positioned at the lateral-most edge of the mid-point of the pinna. Data were calculated as the inhibition by the test compound of increased ear thickness compared to control animals receiving only the irritant.

[6] = test system: Ear Edema Caused by Arachidonic Acid; assay: Inhibition of Ear Edema Caused by Arachidonic Acid (I), Table 2; assay type: in vivo, CF-1 Mice; conditions: i.p., 100 mg/kg; ear thickness at sixty minutes
Excerpt: as §1
Inhibition of Ear Edema Caused by Arachidonic Acid (I)
CF-1 Mice, 25-30 g body weight, six animals per group, were used. Test compounds (compounds of Formula I where X is oxygen, R3, R4, A and B are hydrogen and Q is as indicated in Table 2) were administered intraperitoneally (100 mg/kg) as follows. For intraperitoneal administration, test compound was dissolved in DMSO or 0.5% methylcellulose and 100 μl was injected 30 minutes prior to i.p. administration of 100 mg/kg of arachidonic acid. A solution of the irritant, arachidonic acid, 100 mg/ml in ethanol, was added to the surface of the ear, 5 μl added to the upper surface and 5 μl to the lower surface. After sixty minutes, the thickness of the ear was measured to 0.01 mm by a micrometer with loose drag positioned at the lateral-most edge of the mid-point of the pinna. Data were calculated as the percent inhibition by the test compound of increased ear thickness compared to control animals receiving only the irritant.

[7] = test system: Reverse Passive Artus Reaction; assay: Reverse Passive Artus Reaction (I), Table 6; assay type: in vivo, Male CD rats; conditions: inhibition of blueing; i.p., 100 mg/kg, one hour before antigen
Excerpt: as §1
Reverse Passive Artus Reaction (I)
Male CD rats weighing between 200 and 250 g were used. Test compounds (compounds of Formula I where X is oxygen, R3, R4, A and B are hydrogen and Q is as indicated in Table 6) were dissolved in dimethyl sulfoxide and 200 μl of this solution (100 mg/kg) were injected intraperitoneally one hour before administration of the antigen. The animals were anesthetized inhalationally with isoflurane and then were injected through the penile vein with 1 ml of a solution of 2.5 mg of Evan's blue dye and 5.0 mg of human serum albumin in 1 ml of saline. This treatment was followed immediately by intracutaneous injections of 0.03 ml of anti-human albumin diluted to contain 3.65 mg of antibody at 3 sites along the midline back. Anesthesia was terminated and after three hours the animals were sacrificed. The skin was removed and the blue stained areas cut out. […] The tube contents were agitated and centrifuged, and the absorbance of the supernatant liquid was measured at 620 nm. The data were calculated as inhibition of blueing by test compound compared to control animals receiving only antigen and antibody.

[8] = test system: Ear Edema Caused by Xylene; assay: Inhibition of Ear Edema Caused by Xylene (II), Table 9; assay type: in vivo, CF-1 mice; conditions: i.p., 2 h
How it was run: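 CF-1 mice (25-30 g, six per group) received compound i.p. in DMSO or 0.5% methylcellulose 30 min before xylene was applied to both ear surfaces. Ear thickness was measured by micrometer 2 h later. Values are percent inhibition of the increase in ear thickness versus irritant-only controls.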

[9] = test system: Ear Edema Caused By Tetradecanoylphorbol Acetate; assay: Inhibition of Ear Edema Caused by Tetradecanoylphorbol Acetate (II), Table 7; assay type: in vivo, CF-1 Mice; conditions: i.p., 3 h
[10] = test system: Ear Edema Caused by Oxazolone; assay: Inhibition of Ear Edema Caused by Oxazolone (II), Table 10; assay type: in vivo, CF-1 mice; conditions: i.p., 24 h
[11] = test system: Reverse Passive Artus Reaction; assay: Reverse Passive Artus Reaction (II), Table 11; assay type: in vivo, Male CD rats; conditions: inhibition of blueing; i.p., 100 mg/kg
[12] = test system: Ear Edema Caused by Arachidonic Acid; assay: Inhibition of Ear Edema Caused by Arachidonic Acid (II), Table 8; assay type: in vivo, CF-1 mice; conditions: i.p., sixty minutes
How it was run: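 CF-1 mice (25-30 g, six/group) dosed intraperitoneally with compound in DMSO or 0.5% methylcellulose 30 min before topical arachidonic acid (100 mg/mL in ethanol, both ear surfaces).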

[13] = test system: Adjuvant Induced Fibrinogen; assay: Adjuvant Arthritis: Inhibition of Adjuvant Induced Fibrinogen, Table 12; assay type: in vivo, Male Sprague Dawley rats; conditions: i.p., 100 mg/kg, day 3

Compound	% Inhibition ([8]; 10 mg/kg)	% Inhibition ([8]; 30 mg/kg)	% Inhibition ([8]; 100 mg/kg)	% Inhibition Intraperitoneal ([9]; 10 mg/kg)	% Inhibition Intraperitoneal ([9]; 30 mg/kg)	% Inhibition Intraperitoneal ([9]; 100 mg/kg)	% Inhibition Intraperitoneal ([10]; 10 mg/kg)	% Inhibition Intraperitoneal ([10]; 30 mg/kg)	% Inhibition Intraperitoneal ([10]; 100 mg/kg)	% Inhibition Intraperitoneal [11]	% Inhibition Intraperitoneal ([12]; 10 mg/kg)	% Inhibition Intraperitoneal ([12]; 30 mg/kg)	% Inhibition Intraperitoneal ([12]; 100 mg/kg)	% Inhibition [13]	further results
CC(C)C[C@H](NC(=O)OCC1c2ccccc2-c2ccccc21)C(=O)O [L-Leucine, N-[(9H-Fluoren-9-ylmethoxy)carbonyl]-L-leucine]															% Inhibition, topical [1]: 41%; % Inhibition Intraperitoneal [2]: 58%; % Inhibition Intraperitoneal ([3]; i.p., 100 mg/kg, 30 min before irritant, ear thickness at 3 h): 54%; % Inhibition, topical ([3]; topical, 100 μg upper + 100 μg lower ear surface, 15 min before irritant, 3 h): 41%; % Inhibition Intraperitoneal ([4]; i.p., 100 mg/kg, 30 min before irritant): 47%; % Inhibition, topical ([4]; topical, 10 μg upper + 10 μg lower ear surface, 15 min before irritant): 66%; % Inhibition Intraperitoneal ([5]; i.p., 100 mg/kg, 30 min before irritant, ear thickness at thirty minutes): 74%; % Inhibition Intraperitoneal [6]: 62%; % Inhibition Intraperitoneal [7]: 48%
CC(C)C[C@H](NC(=O)OCC1c2ccccc2-c2cc3ccccc3cc21)C(=O)O (stereo partly drawn) [NPC 15510, N-[9H-(2,3-Benzofluoren-9-ylmethoxy)carbonyl]-L-leucine]	40%	40%	49%	48%	70%	70%	-7%	3%	101%	50%	-24%	69%	67%	35%	
CC(C)C[C@H](NC(=O)OCC1c2ccccc2-c2ccccc21)C(N)=O [NPC 15528, N-[(9H-Fluoren-9-ylmethoxy)carbonyl]-L-leucine Amide]	20%	27%	39%	61%	64%	75%	41%	25%	46%	0%	31%	32%	35%	0%	
D-Pro^2 -D-Trp^7.9 -Substance P [reference compound]															% Inhibition Intraperitoneal ([4]; Reference Standard, 100 μg/ear): 44%; % Inhibition Intraperitoneal ([5]; Reference Standard, 100 μg/ear, thirty minutes): 34%
